Data reported in US20150342190A1, “METHODS FOR LEVERAGING HORMESIS IN PLANT BREEDING AND PLANTS WITH ENHANCED HORMESIS EFFECTS” (PIONEER HI BRED INTERNATIONAL INC, priority 2014, published 2015).
Like-named read-outs stand apart in the source and are kept apart here.

What was measured:
Type in all cases: in vivo
[1] = test system: glyphosate tolerant maize inbred line PH1BVW2; assay: Glyphosate treatment of hydroponically grown maize inbreds, shoot fresh weight (Example 5); settings: seedling fresh weight
Protocol: (§1) Seeds from four glyphosate tolerant maize inbred lines (PH1BVW2, PH1PMB1, PHSZB1 and PH19081) were washed in 0.615% NaClO solution for 5 minutes and rinsed with deionized water. They were germinated for one week and then transferred into individual 10″ Deepot tubes (1 seedling/tube), either with foam plugs to suspend the plants in the tubes (Experiments 1 &2) or filled with Turface (Experiments 3 & 4). These tubes were placed into hydroponic growing tanks (100 tubes/tank) with a modified Hoagland's media. At the end of the 2nd week after planting, plants from selected tanks were sprayed with glyphosate solutions equivalent to 1× or 2× of the recommended dosage (1× dosage: 1 quart of liquid Round-Up WeatherMax® per acre, or 21.75 ul/ft2). Separately, three inbred lines without the glyphosate tolerance trait (PH1BVW2, PH1PMB1, and PHSZB1) were treated with the same dosages of glyphosate to confirm the efficacy of the herbicide. The inbred lines without the glyphosate tolerance trait were killed by both glyphosate treatments, as expected. Four weeks after germination, plants were harvested and shoot fresh weight was recorded.

[2] = test system: glyphosate tolerant maize inbred line PH19081; assay: as above; settings: seedling fresh weight
Protocol: as §1

[3] = test system: inbred lines without the glyphosate tolerance trait (PH1BVW2, PH1PMB1, and PHSZB1); assay: Glyphosate efficacy check on non-tolerant maize inbreds (Example 5); settings: both glyphosate treatments (1× and 2× of the recommended dosage), spray
Protocol: as §1

[4] = test system: soybean line 94Y02 (RR + Als1)
Protocol: (§2) The field trial was conducted as a 7×4 factorial experiment (7 herbicide regimes×4 genotypes) in a split block design with main blocks as herbicide treatments. The trial was conducted at 3 different environments (separate field locations) in Iowa during the summer of 2014. Herbicide control treatment #1 (no sulfonylurea) was replicated 12 times within each of the 3 environments (36 reps total). Herbicide treatments 2 through 7 (Table 7) were replicated 6 times at each of the 3 environments (18 reps total). The additional replication of control treatment #1 was done to increase precision of the treatment mean to which all other treatments (#2 through 7) would be compared.
(§3) It is important to note that both tribenuron and rimsulfuron are more toxic to wild type soybeans than other SU's that could also be tested. But treatment with these specific SU's and application rates was intended to push the limits of SU tolerance so that any response differences between lines could be exposed. The 4 genotypes (Table 6) were randomized within each of the main blocks to facilitate post-emergence application of the various herbicide treatments (Table 7). Each experimental unit was a 2-row soybean plot 15 feet long with 30 inch row spacing and a planting density of 8 seeds per foot of row. Planting was done in mid-May and harvest was done in early October at all 3 environments in 2014.
(§4) Several weeks after planting, the entire field was sprayed post-emergence at the V2 (2-leaf) stage with Roundup PowerMax® at 44 oz/acre (30 oz/acre ai glyphosate) with the addition of ammonium sulfate at a rate of 8 lb per 100 gallons as according to label. Several days later at the V3 (3-leaf) stage, herbicide treatments 2 through 7 (Table 7) were applied according to label directions including the addition of ammonium sulfate at a rate of 8 lb per 100 gallons of spray solution. Randomly embedded control plots of a given soybean genotype facilitated side-by-side visual estimates of herbicide injury. Plots were given visual injury ratings at 14 days after herbicide treatment (14 DAT). Visual injury estimates were assigned to reflect the crop response (a combination of reduced vigor and/or chlorosis) of sprayed rows in relation to the randomly embedded control plots. Injury scores were based on a 0-100% scale, with 0 indicating no crop response and 100 indicating all plants killed.
(§5) At maturity, the seed from each plot was harvested with weight and moisture recorded. Weights were then adjusted to 13% moisture content and reported in units of bushels per acre (bu/a). Yields were also converted to % of control on a “per line” and “per environment” basis. For example, the average yield of SU-treated 93Y92BC3 plots were compared to the average yield of 93Y92BC3 control plots within a given environment and then averaged across environments.

[5] = test system: soybean line 93M94 (RR + Als1)
Protocol: as §2, §3, §4, §5

[6] = test system: soybean line 93Y92BC3 (RR + Als1 + Als2); assay: 2014 field hormesis trial (Example 4)
Protocol: as §2, §3, §4, §5

[7] = test system: soybean line 93Y82BC3 (RR + Als1 + Als2); assay: 2014 field hormesis trial (Example 4)
Protocol: as §2, §3, §4, §5

[8] = test system: soybean line BC44883270 (ALS1 + ALS2); assay: Field yield trial with herbicide treatments (Example 2); settings: full herbicide concentration (Tribenuron 1.0X) at V3
Protocol: (§6) Table 2 describes the soy lines used and whether ALS1, ALS2, or both herbicide resistant genes were present in each.
(§7) Each of the lines in Table 2 was grown at a density of 150,000 seeds/acre (˜8 seeds per foot of row) in two 30 inch rows. Each line was divided into four groups, and each group of each line was subjected to one of the four herbicide treatments listed in Table 3.
(§8) Group 1 of each line was the control group that received no herbicide treatment. Groups 2, 3, and 4 of each line were treated with different concentrations of herbicide corresponding to approximately ¼ strength, ½ strength, and full strength (needed for weed control) respectively of the recommended concentrations of the herbicide DuPont™ Express® w/TotalSol®, which includes Tribenuron, a sulfonylurea herbicide. The herbicide treatment spray solution was prepared according to the label instructions with a non-ionic surfactant and an adjuvant (ammonium sulfate). The herbicide was applied to Groups 2, 3, and 4 during the V3 growth phase, the plants were grown to maturity, and yield measurements were made. Each genotype×herbicide treatment group was replicated six times.

[9] = test system: soybean line BC44883336 (ALS1 + ALS2); assay: as above; settings: full herbicide concentration (Tribenuron 1.0X) at V3
Protocol: as §6, §7, §8

[10] = test system: soybean line BC44883269 (ALS2); assay: as above; settings: full herbicide concentration (Tribenuron 1.0X) at V3
Protocol: as §6, §7, §8

[11] = test system: soybean line BC44883300 (ALS2); assay: as above; settings: full herbicide concentration (Tribenuron 1.0X) at V3
Protocol: as §6, §7, §8

[12] = test system: soybean lines of Table 2; assay: Field yield trial with herbicide treatments (Example 2), all lines; settings: 1/4 concentration herbicide application (Tribenuron 0.25X) at V3
Protocol: as §6, §7, §8

[13] = 0.5x rate at V3, 3 environments
[14] = herbicide treatments 2 and 3 (tribenuron 0.5x and 1x), 14 DAT

O=C(O)CNCP(=O)(O)O [glyphosate]
hormesis effect upon application of herbicide [1]: positive hormesis effect
hormesis effect upon application of herbicide [2]: positive hormesis effect
efficacy of the herbicide on non-tolerant lines [3]: killed

CCS(=O)(=O)c1cccnc1S(=O)(=O)NC(=O)Nc1nc(OC)cc(OC)n1 [rimsulfuron]
Yield as % of control ([4]; 0.5x rate at V3): 54%
Yield effect ([4]; 0.5x rate at V3): negative
Yield (bu/a) [4, 13]: 31.7 bu/a
Yield as % of control ([4]; 1x rate at V3): 33%
Yield effect ([4]; 1x rate at V3): negative
Yield (bu/a) ([4]; 1x rate at V3, 3 environments): 19.5 bu/a
Yield as % of control ([4]; 2x rate at V3): 21%
Yield effect ([4]; 2x rate at V3): negative
Yield (bu/a) ([4]; 2x rate at V3, 3 environments): 12.2 bu/a
Yield as % of control ([5]; 0.5x rate at V3): 76%
Yield effect ([5]; 0.5x rate at V3): negative
Yield (bu/a) [5, 13]: 36.7 bu/a
Yield as % of control ([5]; 1x rate at V3): 51%
Yield effect ([5]; 1x rate at V3): negative
Yield (bu/a) ([5]; 1x rate at V3, 3 environments): 24.7 bu/a
Yield as % of control ([5]; 2x rate at V3): 41%
Yield effect ([5]; 2x rate at V3): negative
Yield (bu/a) ([5]; 2x rate at V3, 3 environments): 19.6 bu/a
Yield as % of control ([6]; 0.5x rate at V3): 107%
Yield effect ([6]; 0.5x rate at V3): Positive
Yield (bu/a) [6, 13]: 59.8 bu/a
Yield as % of control ([6]; 1x rate at V3): 108%
Yield effect ([6]; 1x rate at V3): Positive
Yield (bu/a) ([6]; 1x rate at V3, 3 environments): 60.5 bu/a
Yield as % of control ([6]; 2x rate at V3): 89%
Yield effect ([6]; 2x rate at V3): negative
Yield (bu/a) ([6]; 2x rate at V3, 3 environments): 49.9 bu/a
Yield as % of control ([7]; 0.5x rate at V3): 99%
Yield effect ([7]; 0.5x rate at V3): neutral
Yield (bu/a) [7, 13]: 60.1 bu/a
Yield as % of control ([7]; 1x rate at V3): 93%
Yield effect ([7]; 1x rate at V3): negative
Yield (bu/a) ([7]; 1x rate at V3, 3 environments): 56.2 bu/a
Yield as % of control ([7]; 2x rate at V3): 81%
Yield effect ([7]; 2x rate at V3): negative
Yield (bu/a) ([7]; 2x rate at V3, 3 environments): 48.7 bu/a

COc1nc(C)nc(N(C)C(=O)NS(=O)(=O)c2ccccc2C(=O)O)n1 [tribenuron]
Yield as % of control ([4]; 0.5x rate at V3): 99%
Yield effect ([4]; 0.5x rate at V3): neutral
Yield (bu/a) [4, 13]: 58.8 bu/a
Visual injury 14 DAT ([4]; 0.5x rate at V3, 14 DAT): 9%
Yield as % of control ([4]; 1x rate at V3): 98%
Yield effect ([4]; 1x rate at V3): neutral
Yield (bu/a) ([4]; 1x rate at V3, 3 environments): 58.2 bu/a
Visual injury 14 DAT ([4]; 1x rate at V3, 14 DAT): 19%
Yield as % of control ([4]; 2x rate at V3): 82%
Yield effect ([4]; 2x rate at V3): negative
Yield (bu/a) ([4]; 2x rate at V3, 3 environments): 48.6 bu/a
Visual injury 14 DAT ([4]; 2x rate at V3, 14 DAT): 39%
Yield as % of control ([5]; 0.5x rate at V3): 98%
Yield effect ([5]; 0.5x rate at V3): neutral
Yield (bu/a) [5, 13]: 47.5 bu/a
Visual injury 14 DAT ([5]; 0.5x rate at V3, 14 DAT): 10%
Yield as % of control ([5]; 1x rate at V3): 101%
Yield effect ([5]; 1x rate at V3): neutral
Yield (bu/a) ([5]; 1x rate at V3, 3 environments): 48.9 bu/a
Visual injury 14 DAT ([5]; 1x rate at V3, 14 DAT): 18%
Yield as % of control ([5]; 2x rate at V3): 87%
Yield effect ([5]; 2x rate at V3): negative
Yield (bu/a) ([5]; 2x rate at V3, 3 environments): 41.9 bu/a
Visual injury 14 DAT ([5]; 2x rate at V3, 14 DAT): 39%
Yield as % of control ([6]; 0.5x rate at V3): 106%
Yield effect ([6]; 0.5x rate at V3): Positive
Yield (bu/a) [6, 13]: 59.4 bu/a
Visual injury 14 DAT ([6]; 0.5x rate at V3, 14 DAT): 2%
Yield as % of control ([6]; 1x rate at V3): 104%
Yield effect ([6]; 1x rate at V3): Positive
Yield (bu/a) ([6]; 1x rate at V3, 3 environments): 58.0 bu/a
Visual injury 14 DAT ([6]; 1x rate at V3, 14 DAT): 5%
Yield as % of control ([6]; 2x rate at V3): 108%
Yield effect ([6]; 2x rate at V3): Positive
Yield (bu/a) ([6]; 2x rate at V3, 3 environments): 60.0 bu/a
Visual injury 14 DAT ([6]; 2x rate at V3, 14 DAT): 14%
average visual injury [6, 14]: ≤ 6%
Yield as % of control ([7]; 0.5x rate at V3): 101%
Yield effect ([7]; 0.5x rate at V3): neutral
Yield (bu/a) [7, 13]: 61.1 bu/a
Visual injury 14 DAT ([7]; 0.5x rate at V3, 14 DAT): 3%
Yield as % of control ([7]; 1x rate at V3): 101%
Yield effect ([7]; 1x rate at V3): neutral
Yield (bu/a) ([7]; 1x rate at V3, 3 environments): 61.3 bu/a
Visual injury 14 DAT ([7]; 1x rate at V3, 14 DAT): 6%
Yield as % of control ([7]; 2x rate at V3): 102%
Yield effect ([7]; 2x rate at V3): neutral
Yield (bu/a) ([7]; 2x rate at V3, 3 environments): 61.4 bu/a
Visual injury 14 DAT ([7]; 2x rate at V3, 14 DAT): 16%
average visual injury [7, 14]: ≤ 6%
yield improvement over the control [8]: about 4.5%
yield improvement over the control [9]: ~13%
yield decrease [10]: about 32%
yield decrease [11]: ~19%
yield relative to the control (hormesis effect) [12]: relative yield increase
